This test deals with T1, PDGF-receptor beta enzyme comprising the tyrosine kinase domain (Homo sapiens, UniProt P09619).
T1 construct: from amino acid 545 to 1106 of GenBank Access NO: AAA36427
Description: Inhibition of PDGF-receptor kinase activity (cell-free, PLC1 peptide, 33P Flashplate). It is filed as biochemical. The conditions noted are these: PDGF-R kinase activity; for inhibition at 10 µM: compound at 10 uM, read-out: Percent Inhibition @ 10 uM; for pIC50: read-out: IC50. Summed up: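 Recombinant kinase domain (aa 545–1106) phosphorylated a biotinylated PLC1 peptide with 5 μM ATP plus 33P-γ-ATP, in Tris pH 8, MgCl2, Na3VO4 and 1 mM DTT, for 60 min at 30 °C. Retained 33P was counted after washing. IC50 is the concentration halving activity versus no-inhibitor reactions.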

Each structure is given as a SMILES string. pIC50: −log10 of the molar value.

T1 sequence (P09619 545-1106): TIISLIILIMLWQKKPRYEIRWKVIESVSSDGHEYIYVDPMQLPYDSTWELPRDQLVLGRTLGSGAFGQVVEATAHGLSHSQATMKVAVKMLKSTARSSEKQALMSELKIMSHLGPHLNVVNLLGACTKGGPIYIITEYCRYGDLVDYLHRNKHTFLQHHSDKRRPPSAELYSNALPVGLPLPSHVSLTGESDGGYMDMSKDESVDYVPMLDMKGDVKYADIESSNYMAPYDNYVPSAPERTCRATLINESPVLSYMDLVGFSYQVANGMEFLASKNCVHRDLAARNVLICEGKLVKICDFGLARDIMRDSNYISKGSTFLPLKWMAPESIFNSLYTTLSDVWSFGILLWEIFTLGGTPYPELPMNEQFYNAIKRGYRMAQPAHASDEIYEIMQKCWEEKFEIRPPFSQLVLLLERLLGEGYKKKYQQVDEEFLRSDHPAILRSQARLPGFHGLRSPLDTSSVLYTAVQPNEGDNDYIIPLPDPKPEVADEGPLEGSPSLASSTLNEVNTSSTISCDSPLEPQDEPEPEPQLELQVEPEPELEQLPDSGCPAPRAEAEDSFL

Turning to `COc1cc2c(cc1OCCCN1CCN(C)CC1)Cc1c-2n[nH]c1Nc1cccc(Cl)c1` [Compound 213, (3-Chloro-phenyl)-{7-methoxy-6-[3-(4-methyl-piperazin-1-yl)-propoxy]-2,4-dihydro-indeno[1,2-c]pyrazol-3-yl}-amine], the inhibition at 10 µM is 82% and the pIC50 was 8.57. With `COc1cc2c(cc1OCCCN1CCN(C)CC1)Cc1c-2n[nH]c1Nc1ccc(F)c(Cl)c1` [Compound 214, (3-Chloro-4-fluoro-phenyl)-{7-methoxy-6-[3-(4-methyl-piperazin-1-yl)-propoxy]-2,4-dihydro-indeno[1,2-c]pyrazol-3-yl}-amine], the inhibition at 10 µM stood at 46%.

Regarding `COc1cccc(Nc2[nH]nc3c2Cc2cc(OCCCN4CCN(C)CC4)c(OC)cc2-3)c1` [Compound 215, {7-Methoxy-6-[3-(4-methyl-piperazin-1-yl)-propoxy]-2,4-dihydro-indeno[1,2-c]pyrazol-3-yl}-(3-methoxy-phenyl)-amine], the inhibition at 10 µM stood at 99% and the pIC50 was 8.24. The matching figures for `COc1cc2c(cc1OCCCN1CCN(C)CC1)Cc1c-2n[nH]c1Nc1cccc(F)c1` [Compound 216, (3-Fluoro-phenyl)-{7-methoxy-6-[3-(4-methyl-piperazin-1-yl)-propoxy]-2,4-dihydro-indeno[1,2-c]pyrazol-3-yl}-amine]: 100% and 8.24. The matching figures for `CN(C)CCCOc1ccc2c(c1)Cc1c-2n[nH]c1Nc1ccc(OC(F)(F)F)cc1` [Compound 217, [6-(3-Dimethylamino-propoxy)-2,4-dihydro-indeno[1,2-c]pyrazol-3-yl]-(4-trifluoromethoxy-phenyl)-amine]: 51% and 5.46. In the case of `COc1cc2c(cc1OC)-c1n[nH]c(NCc3ccc(Cl)c(Cl)c3)c1C2` [Compound 219, (3,4-Dichloro-benzyl)-(6,7-dimethoxy-2,4-dihydro-indeno[1,2-c]pyrazol-3-yl)-amine], the inhibition at 10 µM is 39%.

On to `COc1cc2c(cc1OC)-c1n[nH]c(NCC3CCCCC3)c1C2` [Compound 220, Cyclohexylmethyl-(6,7-dimethoxy-2,4-dihydro-indeno[1,2-c]pyrazol-3-yl)-amine], for which the inhibition at 10 µM turned out to be 73% and the pIC50 is 5.48. The matching figures for `COc1cc2c(cc1OC)-c1n[nH]c(Nc3ccc(S(=O)(=O)C4CCNCC4)cc3)c1C2` [Compound 221, (6,7-Dimethoxy-2,4-dihydro-indeno[1,2-c]pyrazol-3-yl)-[4-(piperidine-4-sulfonyl)-phenyl]-amine]: 71% and 5.80.

In the case of `COc1cc2c(cc1OC)-c1n[nH]c(NCc3ccc(C)cc3)c1C2` [Compound 222, (6,7-Dimethoxy-2,4-dihydro-indeno[1,2-c]pyrazol-3-yl)-(4-methyl-benzyl)-amine], the inhibition at 10 µM came to 70% and the pIC50 was 6.09. The matching figures for `COc1cc2c(cc1OC)-c1n[nH]c(NCc3ccccc3C)c1C2` [Compound 223, (6,7-Dimethoxy-2,4-dihydro-indeno[1,2-c]pyrazol-3-yl)-(2-methyl-benzyl)-amine]: 97% and 7.34. In the case of `COc1ccccc1CNc1[nH]nc2c1Cc1cc(OC)c(OC)cc1-2` [Compound 224, (6,7-Dimethoxy-2,4-dihydro-indeno[1,2-c]pyrazol-3-yl)-(2-methoxy-benzyl)-amine], the inhibition at 10 µM is 24%. Consider `COc1cccc(CNc2[nH]nc3c2Cc2cc(OC)c(OC)cc2-3)c1` [Compound 225, (6,7-Dimethoxy-2,4-dihydro-indeno[1,2-c]pyrazol-3-yl)-(3-methoxy-benzyl)-amine], for which the inhibition at 10 µM amounted to 90% and the pIC50 was 7.13. The corresponding values for `COc1cc2c(cc1OC)-c1n[nH]c(NCc3ccccc3Cl)c1C2` [Compound 230, (2-Chloro-benzyl)-(6,7-dimethoxy-2,4-dihydro-indeno[1,2-c]pyrazol-3-yl)-amine] are 90% and 8.72. As for `COc1ccc(CNc2[nH]nc3c2Cc2cc(OC)c(OC)cc2-3)cc1` [Compound 231, (6,7-Dimethoxy-2,4-dihydro-indeno[1,2-c]pyrazol-3-yl)-(4-methoxy-benzyl)-amine], the inhibition at 10 µM came out at 37%. On to `COc1cccc(Nc2n[nH]c3c2Cc2sccc2-3)c1` [Compound 232, (5,7-Dihydro-1-thia-4,5-diaza-cyclopenta[a]pentalen-6-yl)-(3-methoxy-phenyl)-amine], for which the inhibition at 10 µM worked out at 102% and the pIC50 was 7.40.

For `COc1cccc(Nc2[nH]nc3c2Cc2cc(F)ccc2-3)c1` [Compound 234, (6-Fluoro-2,4-dihydro-indeno[1,2-c]pyrazol-3-yl)-(3-methoxy-phenyl)-amine], the inhibition at 10 µM turned out to be 101% and the pIC50 is 6.45. The matching figures for `Fc1cccc(Nc2[nH]nc3c2Cc2cc(F)ccc2-3)c1` [Compound 235, (6-Fluoro-2,4-dihydro-indeno[1,2-c]pyrazol-3-yl)-(3-fluoro-phenyl)-amine]: 86% and 6.67. With `Fc1ccc2c(c1)Cc1c-2n[nH]c1Nc1cc(F)ccc1F` [Compound 236, (2,5-Difluoro-phenyl)-(6-fluoro-2,4-dihydro-indeno[1,2-c]pyrazol-3-yl)-amine], the inhibition at 10 µM stood at 82% and the pIC50 is 8.30. The matching figures for `Fc1ccc2c(c1)Cc1c-2n[nH]c1Nc1ccc(C(F)(F)F)cc1` [Compound 237, (6-Fluoro-2,4-dihydro-indeno[1,2-c]pyrazol-3-yl)-(4-trifluoromethyl-phenyl)-amine]: 88% and 7.30. The matching figures for `Fc1ccc2c(c1)Cc1c-2n[nH]c1Nc1ccc(OC(F)(F)F)cc1` [Compound 238, (6-Fluoro-2,4-dihydro-indeno[1,2-c]pyrazol-3-yl)-(4-trifluoromethoxy-phenyl)-amine]: 87% and 6.38. The corresponding values for `Fc1ccc2c(c1)Cc1c-2n[nH]c1Nc1cc(C(F)(F)F)cc(C(F)(F)F)c1` [Compound 239, (3,5-Bis-trifluoromethyl-phenyl)-(6-fluoro-2,4-dihydro-indeno[1,2-c]pyrazol-3-yl)-amine] are 91% and 6.86. In the case of `Cc1cccc(Nc2[nH]nc3c2Cc2cc(F)ccc2-3)c1` [Compound 240, (6-Fluoro-2,4-dihydro-indeno[1,2-c]pyrazol-3-yl)-m-tolyl-amine], the inhibition at 10 µM came out at 92% and the pIC50 is 8.70. `COCCCOc1cc2c(cc1OC)-c1n[nH]c(Nc3cccc(F)c3)c1C2` [Compound 242, (3-Fluoro-phenyl)-[7-methoxy-6-(3-methoxy-propoxy)-2,4-dihydro-indeno[1,2-c]pyrazol-3-yl]-amine]: the inhibition at 10 µM is 104% and the pIC50 was 7.89.

Turning to `COCCCOc1cc2c(cc1OC)-c1n[nH]c(Nc3cccc(OC)c3)c1C2` [Compound 244, [7-Methoxy-6-(3-methoxy-propoxy)-2,4-dihydro-indeno[1,2-c]pyrazol-3-yl]-(3-methoxy-phenyl)-amine], the inhibition at 10 µM amounted to 101% and the pIC50 is 9.70. The corresponding values for `CCOc1cc2c(cc1OCC)-c1n[nH]c(Nc3cccc(OC)c3)c1C2` [Compound 245, (6,7-Diethoxy-2,4-dihydro-indeno[1,2-c]pyrazol-3-yl)-(3-methoxy-phenyl)-amine] are 87% and 9.00. As to `CCOc1cc2c(cc1OCC)-c1n[nH]c(Nc3ccc(F)c(Cl)c3)c1C2` [Compound 246, (3-Chloro-4-fluoro-phenyl)-(6,7-dioethoxy-2,4-dihydro-indeno[1,2-c]pyrazol-3-yl)-amine], the inhibition at 10 µM turned out to be 77% and the pIC50 was 7.92. In the case of `COc1cc2c(cc1OC)C(C)c1c-2n[nH]c1Nc1ccc(F)cc1` (stereo not drawn) [Compound 248, (6,7-Dimethoxy-4-methyl-2,4-dihydro-indeno[1,2-c]pyrazol-3-yl)-(4-fluoro-phenyl)-amine], the inhibition at 10 µM is 68% and the pIC50 is 6.39. The corresponding values for `COc1cc2c(cc1OC)C(C)c1c-2n[nH]c1Nc1ccc(F)c(Cl)c1` (stereo not drawn) [Compound 250, (3-Chloro-4-fluoro-phenyl)-(6,7-dimethoxy-4-methyl-2,4-dihydro-indeno[1,2-c]pyrazol-3-yl)-amine] are 88% and 6.65.

`COc1cc2c(cc1OC)C(C)c1c-2n[nH]c1Nc1cc(F)cc(F)c1` (stereo not drawn) [Compound 251, (3,5-Difluoro-phenyl)-(6,7-dimethoxy-4-methyl-2,4-dihydro-indeno[1,2-c]pyrazol-3-yl)-amine]: the inhibition at 10 µM was 84% and the pIC50 is 6.49. Consider `COc1cc2c(cc1OC)C(C)c1c-2n[nH]c1Nc1cc(F)ccc1F` (stereo not drawn) [Compound 252, (2,5-Difluoro-phenyl)-(6,7-dimethoxy-4-methyl-2,4-dihydro-indeno[1,2-c]pyrazol-3-yl)-amine], for which the inhibition at 10 µM turned out to be 16%. As to `COc1cc2c(cc1OC)C(C)c1c-2n[nH]c1Nc1cccc(OCc2ccccc2)c1` (stereo not drawn) [Compound 254, (3-Benzyloxy-phenyl)-(6,7-dimethoxy-4-methyl-2,4-dihydro-indeno[1,2-c]pyrazol-3-yl)-amine], the inhibition at 10 µM was 89% and the pIC50 is 6.74.

On to `COc1cc2c(cc1OC)C(C)c1c-2n[nH]c1Nc1cccc(SC)c1` (stereo not drawn) [Compound 255, (6,7-Dimethoxy-4-methyl-2,4-dihydro-indeno[1,2-c]pyrazol-3-yl)-(3-methylsulfanyl-phenyl)-amine], for which the inhibition at 10 µM amounted to 90% and the pIC50 was 6.79. Consider `COc1cc2c(cc1OC)C(C)c1c-2n[nH]c1Nc1cccc(Cl)c1` (stereo not drawn) [Compound 257, (3-Chloro-phenyl)-(6,7-dimethoxy-4-methyl-2,4-dihydro-indeno[1,2-c]pyrazol-3-yl)-amine], for which the inhibition at 10 µM was 35%.

What is called inhibition is the drop in the measured response relative to a control, in per cent. As a reminder, the pIC50 is −log10 of the IC50, conventionally taken in molar units.

The values above are taken from US7196110B2, “N-substituted tricyclic 3-aminopyrazoles as inhibitors for the treatment of cell proliferative disorders” (Janssen Phamaceutica N.V., priority 2002, dated 2007).
